# ChEMBL document CHEMBL3507680, “University of Dundee, Gates Library screen for HepG2 cell viability”
# Assay: Human HepG2 cell viability assay in 384 well format
# Type: toxicity, cell-based
# Set-up: dose 125 nL, time 70.5 hour; concentration not given beside the values
# Settings: HepG2 cells, read-out: Inhibition
row,SMILES,cytotoxicity at 70.5 h [%]
1,CN1CCN(c2ncccn2)CC12CCC(=O)N(CC1CC1)CC2 (centres undefined),9.35
2,O=C(c1ccoc1)N1CC[C@@H]2O[C@@H](COCCN3CCCC3)CC[C@@H]21,-12.6
3,Cc1cc(-c2cnc(N3CCOCC3)nc2-c2cccnc2C)on1,-4.33
4,Cc1ccccc1CS(=O)(=O)c1nnc(C(C)NC(=O)OC(C)(C)C)o1 (centres undefined),26.9
5,CCS(=O)(=O)N1Cc2nccn2CC(Cn2cccn2)C1 (centres undefined),1.18
6,CCc1cc2c(N3CCCC(c4ccn[nH]4)C3)ncnc2s1 (centres undefined),2.73
7,O=S(=O)(NCc1ccc(S(=O)(=O)N2CCCC2)s1)c1cc(Cl)cc(Cl)c1,-21.3
8,Cc1[nH]ncc1C(C)NCc1ccc(F)cc1 (centres undefined),-1.27
9,CS(=O)(=O)Cc1ccc(OCc2ccc(F)cc2)cc1,19.8
10,Cc1ccoc1C(=O)N1C[C@H](OCc2cccnc2)[C@H]2OCCC[C@H]21,-15.2
11,CCc1nc(C2CCCN2C(=O)CCNS(C)(=O)=O)no1 (centres undefined),0.333
12,CN1CCN(C(=O)CCc2cc(Br)cs2)CC1,-6.76
13,CC(C)c1nn(C)c(N(C)C)c1CNC(C)c1ccc2c(c1)OCO2 (centres undefined),20
14,Cc1nccn1C1CCCN(C(=O)c2ccc3nnc(C)n3c2)C1 (centres undefined),14.1
15,O=c1[nH]cnc2c1CCN(S(=O)(=O)c1ccc(Cl)cc1)C2,-11.8
16,Cc1nc(CN2C(=O)CC[C@@H]3[C@H]2CCN3C(=O)c2ccno2)cs1,-1.87
17,CC(=O)N1CCCC1c1nc(C)c2c(n1)N(Cc1ccccn1)CCC2 (centres undefined),-8.03
18,CSc1nnc(N(CCC#N)CCC#N)s1,6.15
19,Cc1cc(C(=O)N2CC[C@@H](O)[C@@H]2Cc2ccccc2)no1,-11.3
20,Cc1cc(C)c(CNC(=O)N2CCCC2c2cc(C)on2)c(=O)[nH]1 (centres undefined),-7.12
21,CCCN(CC1COc2ccccc2O1)C(=O)CCn1cncn1 (centres undefined),-1.87
22,Cc1nc(C)c(C(=O)NCCNc2ncccc2C(F)(F)F)s1,-7.63
23,CN(C)c1ccc(C(=O)N2CCCCC2CC(N)=O)c(F)c1 (centres undefined),-1.41

row,SMILES,cytotoxicity at 70.5 h [%]
1,CC(C)n1ncc2c1NC(=O)CC21C(=O)Nc2c(Br)cc(Cl)cc21 (centres undefined),-14.8
2,COc1c(C)cnc(CN(C)C(=O)c2ccccc2F)c1C,-4.79
3,O=C(NCCc1coc(-c2ccc(F)cc2)n1)NC1CC1,-3.96
4,CCCNC(=O)CN1CCCC1c1nc(Cc2ccc(F)cc2)no1 (centres undefined),-4.46
5,CCn1ccnc1SCCn1cnc2ccsc2c1=O,-10
6,CSc1ccc(C(=O)N2CCCC(Nc3ccc(F)cc3)C2)cc1 (centres undefined),-0.171
7,O=C(c1cccnc1)N(CCO)Cc1cc(Br)ccc1F,-3.63
8,CN(Cc1ccco1)C[C@H]1OC[C@@H]2CCN(Cc3cccnc3)C[C@@H]21,-7.43
9,Cc1ccc(CN(Cc2nc3c(cnn3C)c(=O)[nH]2)C2CC2)o1,-5.9
10,NC(=O)CN(C(=O)c1cccc(C(F)(F)F)c1)C1CCCC1,-6
11,O=C1COc2cc(C(=O)NS(=O)(=O)c3ccc(F)cc3F)ccc2N1,-13.6
12,CCN(Cc1ccccc1)C(=O)CCN1CC(O)C1,-16.3
13,COCc1cc(N(CC(F)F)C2CC2)n2ncnc2n1,-5.91
14,O=C(Nc1ccccc1)C1CN(CC2CC2)CC12CCOCC2 (centres undefined),-17.6
15,Cc1[nH]c(=O)[nH]c(=O)c1CN1CCCC(CCc2ccc(F)cc2F)C1 (centres undefined),-9.69
16,Cc1cc(C)cc(C(=O)Nc2cn[nH]c2)c1,-8.68
17,CCOC(=O)N1CCC(C(=O)Nc2nnc(C(F)(F)F)[nH]2)CC1,5.31
18,CC(C)OCCCNC(=O)NCc1cccc(-n2ccnc2)c1,-6.74
19,CC(C)N1CCC2(CC1)CC(CC(N)=O)c1ccc(F)cc12 (centres undefined),-5.38
20,CN(CC(=O)Nc1nc2c(s1)CCC2)C(=O)c1cccs1,-12.8
21,O=C(Cc1cccc(F)c1)N1C[C@H]2CN(Cc3ccccn3)C[C@H]2C1,-6.98
22,Nc1nnc(CCCn2nnc(-c3ccccc3F)n2)s1,-15.5
23,CN(CCCc1cnn(C)c1)C(=O)Nc1cccc2[nH]nnc12,-7.81

row,SMILES,cytotoxicity at 70.5 h [%]
1,O=C1Nc2ccccc2CNC12CCN(CC1CC1)CC2,-9.09
2,CC1CCC(N2Cc3nc(N)ncc3C2=O)CC1 (centres undefined),-12.4
3,O=C(NCCc1cccs1)[C@]12COC[C@H]1CN(c1ncccn1)C2,-13.7
4,CC(C(=O)N1CCOCC1)N1CCN(Cc2nccn2C)CC1 (centres undefined),-2.07
5,N#CCCSc1sc2c(O)cc(O)nc2c1C#N,13.6
6,OC(CN1CCCc2ccc(F)cc21)Cn1cccn1 (centres undefined),7.05
7,O=C(NC1CCS(=O)(=O)C1)c1ccc(-c2ccc(F)cc2)s1 (centres undefined),-0.198
8,COc1ccc(NC(=O)C(c2cccc(F)c2)N2CCOCC2)cc1 (centres undefined),-8.8
9,OCC1(CNC2CCc3cc4c(cc32)OCCO4)CC1 (centres undefined),22.1
10,Cc1ccccc1CN1CCN(C(C)c2nc(C3CC3)no2)CC1 (centres undefined),17
11,Cc1nc(C(C)C)sc1C(=O)N1CCC(N2CCSCC2)CC1,-12.7
12,Cn1cc(CC(=O)N2CCCC(n3cncn3)C2)cn1 (centres undefined),-3.54
13,O=C(NCCCn1nc2ccccn2c1=O)NCc1ccccc1,-0.996
14,OCCNC1CCc2cc3c(cc21)OCCO3 (centres undefined),9.99
15,CS(=O)(=O)N1CCCC(C(=O)Nc2cnn(COCC(F)(F)F)c2)C1 (centres undefined),3.12
16,Cc1oc(C(=O)O)cc1S(=O)(=O)Nc1cc(Br)ccc1Cl,1.56
17,Cc1ncsc1CCN(C)C(=O)c1ccc(Cn2cnnn2)cc1,3.1
18,CCN(C)c1ncnc2c1CCN(C(=O)N(C)C)CC2,0.982
19,CC(NC(=O)CSCC#N)c1ccccc1 (centres undefined),6.84
20,COc1ccc(Br)c(C(=O)NCC2CCN(C(=O)c3ccoc3)CC2)c1,0.959
21,Cc1ccnc(NC(=O)C(C)Cn2cncn2)c1 (centres undefined),13.8
22,Cc1cc(C2CCCN(C(=O)COc3cc(F)ccc3F)C2)n[nH]1 (centres undefined),3.52
23,CSc1c[nH]nc1NS(=O)(=O)c1cc(F)ccc1Cl,-0.455

row,SMILES,cytotoxicity at 70.5 h [%]
1,Cc1c[nH]c(CN2CCOC(c3ccc(Cl)cc3)C2)c(C)c1=O (centres undefined),-4.57
2,CNS(=O)(=O)c1ccc(CNC(=O)NCC2CCOC2)cc1 (centres undefined),-31.2
3,O=C(Cn1nc(-c2ccc(F)cc2)oc1=O)NCCc1ccccc1,-10.7
4,Cc1cccc(-c2ccc(C(=O)NCCN3CCOCC3)c(=O)[nH]2)c1,-6.01
5,COCCn1ccnc1CN1CCc2[nH]cnc2C1c1cccc(O)c1 (centres undefined),-14.3
6,COc1cccc(CN2CC(O)CN(C(=O)C(C)(C)C)CC2=O)c1OC (centres undefined),50.4
7,CN(C)C(C(=O)NCC(F)(F)F)c1cccc(F)c1 (centres undefined),-2.03
8,CNC(=O)[C@@H]1C[C@H](n2cc(-c3ccc(Cl)cc3)nn2)CN1,-3.41
9,O=C(c1ccccn1)N1C[C@@H]2CC[C@H](C1)N(C(=O)CCc1cccs1)C2,-5.4
10,CCN(Cc1noc(C2CCC2)n1)C(=O)c1cn2ccsc2n1,14.6
11,Cc1nc(CN2CCN(CCCc3ccccc3)CC2)no1,1.83
12,NC(=O)C1CCCN1C(=O)c1cc(C2CC2)nc2ccc(F)cc12 (centres undefined),18.9
13,COc1cccc(CN(C(=O)NC2CC2)C2CCC(O)CC2)c1 (centres undefined),-6.74
14,Cc1ccc(S(N)(=O)=O)cc1C(=O)N1CCc2c(ncnc2N(C)C)C1,0.0385
15,Fc1cnc(N2CCOCC3(CCCN(c4cnccn4)C3)C2)nc1 (centres undefined),-3.83
16,COCC1CCN(C(=O)c2cn(Cc3ccccc3C(F)(F)F)nn2)C1 (centres undefined),-21.7
17,COc1nn(C)c2c1CCCN(C(=O)c1cc[nH]n1)C2,-13
18,Cc1noc(C)c1-c1cccc(C2CCN(S(=O)(=O)N(C)C)CC2)n1,2.89
19,CCc1c(C)nc2n(c1=O)CC(C(=O)Nc1ncccc1C)CS2 (centres undefined),-8.04
20,COc1nn(C)c2c1CCCN(C(=O)c1ccc3ccccc3n1)C2,8.68
21,COCCN(C)C(C(=O)O)c1ccc(F)c(C)c1 (centres undefined),-2.89
22,O=C(NCc1ccccc1)c1nnc2ccc(N3CCOCC3)cc2n1,4.86
23,Cc1cccc(CN2C[C@@H]3COC[C@]3(CNC(=O)c3ccno3)C2)n1,7.45

row,SMILES,cytotoxicity at 70.5 h [%]
1,CN1CC(NC(=O)Cc2csc(C(C)(C)C)n2)CCC1=O (centres undefined),20.1
2,O=C(c1cccc2c1OCCO2)N1CCCC1Cn1cccn1 (centres undefined),-8.07
3,CC(C)(C)c1cn(C2CCN(C3CCSC3)CC2)nn1 (centres undefined),-7.05
4,Cc1cn[nH]c1C1COCCN1C(=O)c1cc(F)ccc1F (centres undefined),5.9
5,c1cc(CN2CCOCC3(C2)CN(Cc2nccs2)CCO3)ccn1 (centres undefined),17.5
6,CC(C)(C)CNC(=O)c1ccc(C(=O)O)cc1,-5.94
7,CNS(=O)(=O)c1cccc(C(C)NCc2ccncc2)c1 (centres undefined),-2.51
8,Cc1cc(F)c(S(=O)(=O)NCC(C)(C)N)cc1F,-10.9
9,O=C(CCN1CCCC1c1cccc(F)c1)N1CCc2sccc2C1 (centres undefined),0.336
10,CC(C)(C)OC(=O)N1CSC[C@@H]1C(=O)NCc1cccc(C#N)c1,-0.236
11,O=C(c1ccc(S(=O)(=O)N2CCNCC2)cc1)N1CCCC(O)C1 (centres undefined),-16.1
12,COc1cc(/C=C/c2ncc(C(=O)O)s2)cc(Cl)c1OC,18.2
13,CCOC(=O)N1CCN(c2nc(NCCCO)c3ccccc3n2)CC1,-21.9
14,O=C(c1cocn1)N1C[C@@H]2CN(CC3CC3)CCO[C@@H]2C1,-1.55
15,O=c1n(CC2CCCCO2)nc(CC2CCNCC2)n1-c1ccccc1 (centres undefined),-6.56
16,CC(=O)NCCNC(=O)CCn1c(C)cc2ccccc21,-3.8
17,CC1CCN(C(=O)CSCCN2CCOCC2)CC1,4.07
18,CN1CCN([C@@H]2CCN(C(N)=O)[C@H]2Cc2ccccc2)CC1,-0.0899
19,O=C(Cc1cnc(-c2c(Cl)cccc2Cl)s1)N1CCOCC1,-13.9
20,Cc1cc(C)n(CC2CCCCN2C(=O)c2ccsc2)n1 (centres undefined),-2.03
21,CCn1cc(CN2CCCN(C(=O)c3cccc(C#N)c3)CC2)cn1,-3.9
22,CC(C)CNC1(Cc2cc(-c3ccccc3)on2)COC1,-6.11
